The record followed here is DBAASP.

Values after ≈ are worked out from the molar mass of the structure shown.

Some test systems named below: Escherichia coli K88; Escherichia coli K99; Escherichia coli UB1005; Bacillus megaterium Bm11; Escherichia coli; Escherichia coli TOP 10.
Holding throughout (assay): ≥ marks a high value that may be exact or a test limit, other limits are often not marked, values filed in µg/mL are converted to µM
The subject of assay [1] is Escherichia coli ATCC 25922.
The test system of assay [2] is Lacticaseibacillus rhamnosus 1.0385.
Assay [3] concerns Lacticaseibacillus rhamnosus 1.0911.
Assay [4] deals with Lacticaseibacillus rhamnosus 1.0936.
Assay [5] relates to Lacticaseibacillus rhamnosus 7469.
Assay [6] has as its system Lactiplantibacillus plantarum 8014.
For assay [7], the system named is Pseudomonas aeruginosa ATCC 27853.
For assay [8], the system named is Salmonella enterica subsp. enterica serovar Pullorum C79-13.
The test system of assay [9] is Salmonella enterica subsp. enterica serovar Typhimurium ATCC 14028.
The subject of assay [10] is Salmonella enterica subsp. enterica serovar Typhimurium C77-31.
Assay [11] has as its system Staphylococcus aureus ATCC 25923.
Assay [12] relates to Staphylococcus aureus ATCC 29213.
The subject of assay [13] is Staphylococcus aureus ATCC 43300.
Assay [14] has as its system Acinetobacter baumannii ATCC 19606.
Assay [15] relates to Candida parapsilosis ATCC 22019.
In assay [16] the test system is Enterococcus faecalis ATCC 51299.
Assay [17] deals with Enterococcus faecium ATCC 19434.
The subject of assay [18] is Escherichia coli ATCC 35218.
For assay [19], the system named is Klebsiella pneumoniae ATCC 49472.
For assay [20], the system named is Klebsiella pneumoniae ATCC BAA-2814.
In assay [21] the test system is Staphylococcus aureus ATCC 12600.
Assay [22] has as its system Staphylococcus aureus ATCC BAA-2312.
The subject of assay [23] is Staphylococcus epidermidis ATCC 12228.
The subject of assay [24] is Staphylococcus aureus ATCC BAA-1683.

As a reminder, the MIC is the lowest concentration that inhibits growth of the organism. For the molecule `C[C@@H]1NC(=O)[C@@H](N)CSSC[C@@H](C(=O)O)NC(=O)[C@H](Cc2ccccc2)NC(=O)[C@H](Cc2ccc(O)cc2)NC(=O)[C@H](CO)NC1=O` [CASYFC], the minimal inhibitory concentration (MIC) is more than 64 µM in [1]; not below 64 µM in the assay with Escherichia coli K88; not below 64 µM against Escherichia coli K99; not below 64 µM in the assay on Escherichia coli UB1005; not below 64 µM in assay [2]; not below 64 µM in assay [3]. The minimal inhibitory concentration (MIC) in [4] is not below 64 µM; in assay [5], not below 64 µM; in assay [6] it was not below 64 µM; in assay [7] it was more than 64 µM; in [8], not below 64 µM; in [9], more than 64 µM. Also, the MIC was not below 64 µM in [10], more than 64 µM in [11], more than 64 µM in assay [12] and more than 64 µM in assay [13].
Turning to `CC[C@H](C)[C@H](NC(=O)CN)C(=O)N[C@@H](Cc1ccccc1)C(=O)N[C@@H](CC(=O)O)C(=O)N[C@H](C(=O)N[C@@H](CC(C)C)C(=O)N[C@@H](CCCCN)C(=O)N[C@@H](CC(N)=O)C(=O)N[C@@H](CC(C)C)C(=O)N[C@@H](C)C(=O)N[C@@H](CCCCN)C(=O)NCC(=O)N[C@H](C(=O)N[C@H](C(=O)N[C@H](C(=O)N[C@@H](CO)C(=O)N[C@@H](CC(C)C)C(=O)N[C@@H](C)C(=O)N[C@@H](CO)C(N)=O)[C@@H](C)O)[C@@H](C)CC)C(C)C)C(C)C` [GIFDVLKNLAKGVITSLAS], the MIC in assay [14] is 6.25 µM (≈ 12.2 µg/mL); against Bacillus megaterium Bm11, 0.78 µM (≈ 1.52 µg/mL); in assay [15], 25 µM (≈ 48.6 µg/mL); in assay [16], not below 250 µM; in assay [17], not below 62.5 µM; in [1], 6.25 µM (≈ 12.2 µg/mL). The minimum inhibitory concentration (MIC) in assay [18] is 31.2 µM (≈ 60.8 µg/mL); in assay [19], not below 62.5 µM; in assay [20], not below 62.5 µM; in assay [7] it was 62.5 µM (≈ 122 µg/mL); in assay [9], 62.5 µM (≈ 122 µg/mL); in [21], 31.2 µM (≈ 60.8 µg/mL). The MIC in assay [11] was 12.5 µM (≈ 24.3 µg/mL); in assay [22] it was 31.2 µM (≈ 60.8 µg/mL); in assay [23], 6.25 µM (≈ 12.2 µg/mL).
Turning to `CC(C)C[C@H](NC(=O)[C@H](CC(C)C)NC(=O)[C@H](CCCN=C(N)N)NC(=O)[C@H](Cc1c[nH]c2ccccc12)NC(=O)[C@H](Cc1c[nH]c2ccccc12)NC(=O)[C@@H](N)CCCCN)C(=O)N[C@@H](Cc1cnc[nH]1)C(=O)N[C@@H](CCCCN)C(=O)N[C@@H](CCCCN)C(=O)N[C@@H](CCC(N)=O)C(N)=O` [KWWRLLHKKQ], the MIC was 351 µM (≈ 500 µg/mL) against Escherichia coli, 351 µM (≈ 500 µg/mL) in assay [11] and not below 351 µM in [24].
`CC[C@H](C)[C@H](NC(=O)[C@H](CCC(=O)O)NC(=O)[C@H](CCCCN)NC(=O)[C@H](CCC(=O)O)NC(=O)[C@@H](NC(=O)[C@H](CO)NC(=O)[C@H](CCC(N)=O)NC(=O)[C@@H](NC(=O)[C@@H]1CCCN1C(=O)[C@H](CC(=O)O)NC(=O)[C@H](C)NC(=O)[C@H](CCSC)NC(=O)[C@@H](NC(=O)[C@H](Cc1ccccc1)NC(=O)[C@@H](N)CC(C)C)[C@@H](C)O)[C@@H](C)CC)[C@@H](C)CC)C(N)=O` [LFTMADPIQSIEKEI]: the MIC against Escherichia coli TOP 10 was not below 57.6 µM.
